Counter-ions that a name gives are not always drawn. Like-named read-outs stand apart in the source and are kept apart here.
Columns and labels:
[1] = system: HCT-8 host cells (Hs18S)
[2] = system: Cryptosporidium parvum; experiment: qRT-PCR assay of the growth of C. parvum in vitro in HCT-8 host cells (primary and secondary screening, EC50); assay type: cell-based; settings: Cryptosporidium parvum
[3] = in vitro; settings: for cytotoxicity at 41 h, 10 µM: human
[4] = primary screening at 10 uM, treated vs control
[5] = HCT-8, primary screening at 10 uM, read-out: Inhibition (%)
[6] = HCT-8, secondary screening at 3.3 uM, read-out: % Inhibition (3.3 uM)

Row | Hs18S ΔCT ([1]; human, 41 h, 10 μM) | Compound | Hs18S ΔCT [1, 4] | inhibition at 10 µM [2, 5] | cytotoxicity at 10 µM [3] | inhibition at 3.3 µM [2, 6] | cytotoxicity at 41 h, 10 µM [3] | inhibition at 10 µM ([2]; HCT-8) | inhibition at 3.3 µM ([2]; HCT-8, read-out: % Inhibition (3.3 uM))
1 |  | COc1cc2ccc(=O)oc2c(OC)c1OC [FRAXIDIN METHYL ETHER] | -0.48 | -37.3% | -39.5% |  |  |  | 
2 | 0.94 | CO[C@H]1C[C@@H]2CC[C@@H](C)[C@@](O)(O2)C(=O)C(=O)N2CCCC[C@H]2C(=O)O[C@H]([C@H](C)C[C@@H]2CC[C@@H](O)[C@H](OC)C2)CC(=O)[C@H](C)/C=C(\C)[C@@H](O)[C@@H](OC)C(=O)[C@H](C)C[C@H](C)/C=C/C=C/C=C/1C [SIROLIMUS] |  | 76.6% |  | 35% | 47.9% |  | 
3 | -0.13 | CC(C)=CC1C(CO)C1(C)C (stereo not drawn) [CHRYSANTHEMYL ALCOHOL] |  | -16.9% |  |  | -9.5% |  | 
4 |  | COc1cc(OC)c(-c2c(OC)cc(OC)cc2OC)c(OC)c1 [DIFUCOL HEXAMETHYL ETHER] | 0.08 | -10.9% | 5.1% |  |  |  | 
5 | 0.02 | O=c1ccn([C@@H]2O[C@H](CO)[C@@H](O)[C@H]2O)c(=O)[nH]1 [URIDINE] |  | 44.8% |  |  | 1.4% |  | 
6 | 0.05 | COc1cccc(O)c1O [3-METHOXYCATECHOL] |  | -66.7% |  |  | 3.2% |  | 
7 | -0.05 | NC(=O)c1cccnc1 [NIACINAMIDE] |  | -9.59% |  |  | -3.6% |  | 
8 |  | O=C1c2ccccc2C(=O)c2c1ccc(O)c2O [ALIZARIN] | -0.13 | -42.4% | -9.1% |  |  |  | 
9 | 0.02 | COc1ccccc1O [GUAIACOL] |  | -32.9% |  |  | 1.6% |  | 
10 | 0.22 | CC[C@H](C)C(=O)O[C@H]1CCC=C2C=C[C@H](C)[C@H](CC[C@@H]3C[C@@H](O)CC(=O)O3)[C@H]21 [MEVASTATIN] |  | 24% |  |  | 14.4% |  | 
11 |  | COc1cc2c(c(OC)c1OC)-c1ccc(OC)c(=O)cc1[C@@H](NC(C)=O)CC2 [COLCHICINE] | -0.34 | 24.9% | -26.5% |  |  |  | 
12 | -0.19 | CC(C)c1ccc2c(c1)CC[C@H]1[C@](C)(CN)CCC[C@]21C [18-AMINOABIETA-8,11,13-TRIENE SULFATE] |  | 47.6% |  |  | -13.9% |  | 
13 |  | C[C@H]1[C@H](C)CC[C@]2(C(=O)O)CC[C@]3(C)C(=CC[C@@H]4[C@@]5(C)C[C@@H](O)[C@H](O)[C@@](C)(CO)[C@@H]5[C@H](O)C[C@]43C)[C@H]12 [MADECASSIC ACID] | -0.16 | -20.3% | -11.7% |  |  |  | 
14 |  | C=C(C)[C@@H]1CC=C(C(=O)O)CC1 [PERILLIC ACID (-)] | 0.14 | -16.2% | 8.9% |  |  |  | 
15 |  | CN[C@@H]1[C@@H](O)[C@@H](O[C@@H]2[C@@H](O)[C@H](O[C@H]3O[C@H]([C@@H](C)O)[C@@H](O)[C@H](O)[C@H]3N)[C@@H](N)C[C@H]2N)OC[C@]1(C)O [GENETICIN] | 0.07 | -26.1% | 4.9% |  |  |  | 
16 |  | COC(=O)[C@]1(C)CC[C@]2(C)CC[C@]3(C)C4=CC=C5C(=CC(=O)C(O)=C5C)[C@]4(C)CC[C@@]3(C)[C@@H]2C1 [PRISTIMERIN] | 0.55 | 94.7% | 31.6% | 30% |  |  | 
17 |  | COc1cc(-c2coc3cc(OC)c(OC)c(OC)c3c2=O)cc(OC)c1OC [IRIGENIN TRIMETHYL ETHER] | -0.48 | 13.7% | -39.9% |  |  |  | 
18 | 0.02 | CC(=O)O[C@@H]1C[C@H]2C(C)(C)C(=O)C=C[C@]2(C)[C@H]2CC[C@@]3(C)[C@H](c4ccoc4)OC(=O)[C@H]4O[C@]43[C@@]21C [GEDUNIN] |  | 6.58% |  |  | 1.2% |  | 
19 | 0.43 | CC(C)=CCC/C(C)=C\CO [NEROL] |  | -20.6% |  |  | 25.8% |  | 
20 | 0.08 | COC1=C[C@@H](C)[C@@H]2C[C@H]3OC(=O)C[C@H]4C(C)=C(OC)C(=O)[C@H]([C@@]2(C)C1=O)[C@@]34C [QUASSIN] |  | 29.4% |  |  | 5.1% |  | 

Row | Compound | Hs18S ΔCT ([1]; human, 41 h, 10 μM) | Hs18S ΔCT [1, 4] | inhibition at 10 µM [2, 5] | cytotoxicity at 10 µM [3] | inhibition at 3.3 µM [2, 6] | cytotoxicity at 41 h, 10 µM [3] | inhibition at 10 µM ([2]; HCT-8) | inhibition at 3.3 µM ([2]; HCT-8, read-out: % Inhibition (3.3 uM))
21 | C=CCc1ccc(O)c(OC)c1 [EUGENOL] | -0.36 |  | 3.09% |  |  | -28.5% |  | 
22 | N[C@@H](Cc1c[nH]c2ccccc12)C(=O)O [TRYPTOPHAN] | -0.75 |  |  |  |  | -68.2% | 85.5% | 17%
23 | COc1c2c(cc3c1OCO3)CC[N+](C)=C2 [COTARNINE CHLORIDE] | -0.20 |  | -14.5% |  |  | -15.2% |  | 
24 | CC(C)CCC[C@@H](C)[C@H]1CC[C@H]2[C@@H]3CC=C4CC(=O)CC[C@]4(C)[C@H]3CC[C@]12C [CHOLEST-5-EN-3-ONE] | 0.04 |  | -37.5% |  |  | 2.7% |  | 
